Where a name gives a salt, the structure may show the parent alone. Read-outs that look alike come from different tables or passages of the source.
Tests used:
human PI3Kα protein = target: T1, human PI3Kα protein (Homo sapiens, UniProt P42336); experiment: PI3Kα enzyme assay (ADP-Glo); type: biochemical; settings: read-out: PI3Kα enzyme inhibitory activity
T1 construct: purchased Carna Biosciences, Inc; host or cells: baculovirus expression system
Outline: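 Biotinylated human PI3Kα (baculovirus-expressed, 4.5 nmol/L) pre-incubated 15 min with compound in Tris-HCl pH 7.5, MgCl2, BSA; reaction 60 min at 25° C with 50 μmol/L PIP2 and 100 μmol/L ATP final. ADP quantified by ADP-Glo luminescence; IC50 calculated.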

[1] = target: T2, GST fusion human ERK2 protein (Homo sapiens, UniProt P28482); experiment: ERK2 enzyme assay (1); type: biochemical; settings: read-out: ERK2 enzyme inhibitory activity (1)
T2 construct: purchased Carna Biosciences, Inc; host or cells: E. coli expression system
T2 sequence (P28482 whole entry, the tested form may be a part): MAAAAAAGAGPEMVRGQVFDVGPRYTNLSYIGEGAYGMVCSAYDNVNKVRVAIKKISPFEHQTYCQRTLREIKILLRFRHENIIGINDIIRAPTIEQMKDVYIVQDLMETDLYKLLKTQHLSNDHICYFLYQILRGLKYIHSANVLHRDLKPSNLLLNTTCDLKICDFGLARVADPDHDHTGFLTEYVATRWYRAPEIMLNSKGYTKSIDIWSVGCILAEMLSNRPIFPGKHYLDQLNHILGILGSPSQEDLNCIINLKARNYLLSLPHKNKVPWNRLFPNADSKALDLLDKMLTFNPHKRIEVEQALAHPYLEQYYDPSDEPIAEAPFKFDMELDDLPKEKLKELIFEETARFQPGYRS
Outline: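 Enzyme (2.5 nmol/L, E. coli-expressed) preincubated with compound 15 min at room temperature in HEPES/MgCl2/DTT/Brij35 buffer, pH 7.5; reaction with 4.25 μmol/L FL-Peptide 8 and 43.1 μmol/L ATP for 120 min at 25 °C. Phosphorylated peptide fraction quantified by mobility-shift separation after EDTA stop; IC50 calculated.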

[2] = 4.5 nmol/L PI3Kα, PIP2 50 μmol/L, ATP 100 μmol/L
[3] = 2.5 nmol/L ERK2, ATP 43.1 μmol/L

T1 sequence (P42336 whole entry): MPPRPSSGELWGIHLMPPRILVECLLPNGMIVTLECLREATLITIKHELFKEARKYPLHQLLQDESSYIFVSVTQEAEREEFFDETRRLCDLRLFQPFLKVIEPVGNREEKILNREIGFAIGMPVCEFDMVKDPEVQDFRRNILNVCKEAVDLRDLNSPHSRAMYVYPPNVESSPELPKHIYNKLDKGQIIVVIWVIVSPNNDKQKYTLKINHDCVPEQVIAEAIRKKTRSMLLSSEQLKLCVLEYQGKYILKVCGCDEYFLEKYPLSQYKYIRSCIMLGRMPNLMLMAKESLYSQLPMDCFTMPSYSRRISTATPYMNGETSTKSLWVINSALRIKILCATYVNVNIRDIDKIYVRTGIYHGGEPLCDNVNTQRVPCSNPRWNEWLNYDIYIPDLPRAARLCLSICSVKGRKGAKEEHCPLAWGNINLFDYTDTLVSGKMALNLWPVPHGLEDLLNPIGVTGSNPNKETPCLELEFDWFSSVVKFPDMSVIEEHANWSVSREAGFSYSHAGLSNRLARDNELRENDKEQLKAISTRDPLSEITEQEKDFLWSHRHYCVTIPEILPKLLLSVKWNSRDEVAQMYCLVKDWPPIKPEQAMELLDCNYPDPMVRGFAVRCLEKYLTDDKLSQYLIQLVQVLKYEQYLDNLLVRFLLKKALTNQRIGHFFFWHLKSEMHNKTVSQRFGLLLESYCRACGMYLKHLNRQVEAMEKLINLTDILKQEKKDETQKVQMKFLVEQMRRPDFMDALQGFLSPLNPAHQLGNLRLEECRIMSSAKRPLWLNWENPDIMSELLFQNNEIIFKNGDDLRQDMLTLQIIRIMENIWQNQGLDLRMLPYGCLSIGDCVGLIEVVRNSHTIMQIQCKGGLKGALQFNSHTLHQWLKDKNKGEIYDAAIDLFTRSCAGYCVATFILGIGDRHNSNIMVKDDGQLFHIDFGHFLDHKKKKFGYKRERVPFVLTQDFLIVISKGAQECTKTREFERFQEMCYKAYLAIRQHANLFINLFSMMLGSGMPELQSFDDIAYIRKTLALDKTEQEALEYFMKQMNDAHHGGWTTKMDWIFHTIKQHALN
T1 sequence (P27986 whole entry partner): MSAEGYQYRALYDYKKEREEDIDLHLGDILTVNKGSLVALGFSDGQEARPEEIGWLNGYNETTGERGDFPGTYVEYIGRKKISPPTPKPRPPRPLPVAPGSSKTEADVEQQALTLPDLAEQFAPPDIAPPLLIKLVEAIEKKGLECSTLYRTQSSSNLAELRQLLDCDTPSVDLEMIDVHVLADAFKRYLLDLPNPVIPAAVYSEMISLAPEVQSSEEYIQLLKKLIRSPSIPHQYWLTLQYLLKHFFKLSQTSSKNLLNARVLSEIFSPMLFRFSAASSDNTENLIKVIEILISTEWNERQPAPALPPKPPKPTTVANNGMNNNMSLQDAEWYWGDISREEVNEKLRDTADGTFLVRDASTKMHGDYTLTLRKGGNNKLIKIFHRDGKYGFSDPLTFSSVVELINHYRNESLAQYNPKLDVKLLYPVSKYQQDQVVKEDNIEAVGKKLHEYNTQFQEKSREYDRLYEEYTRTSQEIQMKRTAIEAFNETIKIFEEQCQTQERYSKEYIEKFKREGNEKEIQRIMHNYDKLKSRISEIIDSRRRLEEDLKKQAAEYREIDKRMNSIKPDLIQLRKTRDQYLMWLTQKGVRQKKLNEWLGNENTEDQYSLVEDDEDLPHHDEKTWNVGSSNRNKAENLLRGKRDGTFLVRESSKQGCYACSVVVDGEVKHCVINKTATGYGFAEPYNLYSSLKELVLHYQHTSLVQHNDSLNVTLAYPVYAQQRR

Structure (SMILES)	IC50 (human PI3Kα protein; [2]) [nM]	IC50 [1, 3] [nM]	IC50 (human PI3Kα protein) [nM]	IC50 ([1]; ERK2 enzyme assay (1)) [nM]
Cc1ncc(Nc2cnc3ccc(Nc4nnc(C5CCCC5)s4)nc3c2)cc1-n1nccn1 [Example 0074]	< 1000	< 1000	–	–
CCCc1nn(CCCN2CCCC2)cc1-c1cnc2ccc(Nc3cc(C(C)C)cnn3)nc2c1 [Example 0391, N-(5-isopropylpyridazin-3-yl)-7-(3-propyl-1-(3-(pyrrolidin-1-yl)propyl)-1H-pyrazol-4-yl)-1,5-naphthyridine-2-amine]	–	–	< 1000	< 1000
Cn1cc(-c2cnc3ccc(Nc4nnc(S(N)(=O)=O)s4)nc3c2)cn1 [Example 0191, ((5-((7-(1-methyl-1H-pyrazol-4-yl)-1,5-naphthyridin-2-yl)amino)-1,3,4-thiadiazol-2-yl)sulfonyl)amide sodium salt]	< 1000	< 1000	–	–
CCCCCc1nnc(Nc2ccc3ncc(-c4cnn(C)c4)cc3n2)[nH]1 [Example 0299, 7-(1-methyl-1H-pyrazol-4-yl)-N-(5-pentyl-4H-1,2,4-triazol-3-yl)-1,5-naphthyridine-2-amine]	–	–	10000 to 50000	< 1000
COc1cccc(Nc2cnc3ccc(Nc4nnc(C5CCCC5)s4)nc3c2)c1 [Example 0220, N^2-(5-cyclopentyl-1,3,4-thiadiazol-2-yl)-N^7-(3-methoxyphenyl)-1,5-naphthyridine-2,7-diamine]	–	–	< 1000	1000 to 10000
c1cnc2ccc(Nc3nnc(C4CCCC4)s3)nc2c1 [Example 0043, 5-cyclopentyl-N-(1,5-naphthyridin-2-yl)-1,3,4-thiadiazole-2-amine hydrochloride]	1000 to 10000	< 1000	–	–
Cn1cc(-c2cnc3ccc(Nc4cncs4)nc3c2)cn1 [Example 0199, N-(7-(1-methyl-1H-pyrazol-4-yl)-1,5-naphthyridin-2-yl)thiazole-5-amine]	1000 to 10000	1000 to 10000	–	–
CN(C)S(=O)(=O)c1nnc(Nc2ccc3ncc(-c4cnn(C)c4)cc3n2)s1 [Example 0193, N,N-dimethyl-5-((7-(1-methyl-1H-pyrazol-4-yl)-1,5-naphthyridin-2-yl)amino)-1,3,4-thiadiazole-2-sulfonamide]	< 1000	< 1000	–	–
c1nc2ccc(Nc3nnc(C4CCCC4)s3)nc2cc1N1CCNCC1 [Example 0055]	1000 to 10000	< 1000	–	–
CC(=O)OCC(C)(C)c1cnnc(Nc2ccc3ncc(-c4cnn(CCCN5CCCC5)c4)cc3n2)c1 [Example 0404, 2-Methyl-2-(6-((7-(1-(3-(pyrrolidin-1-yl)propyl)-1H-pyrazol-4-yl)-1,5-naphthyridin-2-yl)amino)pyridazin-4-yl)propyl acetate]	–	–	< 1000	< 1000
COCCOc1cnc2ccc(Nc3nnc(C4CCCC4)s3)nc2c1 [Example 0041, 5-cyclopentyl-N-(7-(2-methoxyethoxy)-1,5-naphthyridin-2-yl)-1,3,4-thiadiazole-2-amine hydrochloride]	10000 to 50000	< 1000	–	–
OCc1nnc(Nc2ccc3ncc(-c4cnn(CCCN5CCCC5)c4)cc3n2)s1 [Example 0239, (5-((7-(1-(3-(Pyrrolidin-1-yl)propyl)-1H-pyrazol-4-yl)-1,5-naphthyridin-2-yl)amino)-1,3,4-thiadiazol-2-yl)methanol]	–	–	< 1000	< 1000
c1ncc(N2CCCCC2)cc1Nc1cnc2ccc(Nc3nnc(C4CCCC4)s3)nc2c1 [Example 0101]	< 1000	< 1000	–	–
CC(C)OCc1nn(C)cc1-c1cnc2ccc(Nc3nnc(C(C)C)s3)nc2c1 [Example 0146]	< 1000	< 1000	–	–
c1cc(N2CCOCC2)ncc1Nc1cnc2ccc(Nc3nnc(C4CCCC4)s3)nc2c1 [Example 0066]	< 1000	< 1000	–	–
O=C(CO)N1CCN(c2cnc3ccc(Nc4nnc(C5CCCC5)s4)nc3c2)CC1 [Example 0058, 1-(4-(6-((5-cyclopentyl-1,3,4-thiadiazol-2-yl)amino)-1,5-naphthyridin-3-yl)piperazin-1-yl)-2-hydroxyethanone]	1000 to 10000	< 1000	–	–
CC(=O)N1CCCC(Nc2cnc3ccc(Nc4nnc(C5CCCC5)s4)nc3c2)C1 (stereo not shown) [Example 0076]	< 1000	< 1000	–	–
c1nc2ccc(Nc3nnc(CC4CCCC4)s3)nc2cc1-c1cnn(CCCN2CCCC2)c1 [Example 0234]	–	–	< 1000	< 1000
c1n[nH]cc1Nc1cnc2ccc(Nc3nnc(C4CCCCC4)s3)nc2c1 [Example 0223]	–	–	1000 to 10000	< 1000
CC(C)c1nnc(Nc2ccc3nccc(-c4ccn[nH]4)c3n2)s1 [Example 0285]	–	–	< 1000	< 1000
Cn1cc(-c2cnc3ccc(Nc4cc[nH]n4)nc3c2)cn1 [Example 0033, 7-(1-methyl-1H-pyrazol-4-yl)-N-(1H-pyrazol-3-yl)-1,5-naphthyridine-2-aminetrifluoroacetate]	1000 to 10000	1000 to 10000	–	–

Structure (SMILES)	IC50 (human PI3Kα protein; [2]) [nM]	IC50 [1, 3] [nM]	IC50 (human PI3Kα protein) [nM]	IC50 ([1]; ERK2 enzyme assay (1)) [nM]
c1nc2ccc(Nc3nnc(C4CCCC4)s3)nc2cc1C1CCNCC1 [Example 0332, 5-Cyclopentyl-N-(7-(piperidin-4-yl)-1,5-naphthyridin-2-yl)-1,3,4-thiadiazole-2-amine hydrochloride]	–	–	10000 to 50000	< 1000
c1nc2ccc(Nc3ncc(C4CCCC4)s3)nc2cc1-c1cnn(CCCN2CCCC2)c1 [Example 0126, 5-cyclopentyl-N-(7-(1-(3-(pyrrolidin-1-yl)propyl)-1H-pyrazol-4-yl)-1,5-naphthyridin-2-yl)thiazole-2-amine]	< 1000	< 1000	–	–
Cn1cc(-c2cnc3ccc(Nc4nnc(Cc5ccccc5)s4)nc3c2)cn1 [Example 0165, 5-benzyl-N-(7-(1-methyl-1H-pyrazol-4-yl)-1,5-naphthyridin-2-yl)-1,3,4-thiadiazole-2-amine]	10000 to 50000	< 1000	–	–
CN(c1cn[nH]c1)c1cnc2ccc(Nc3nnc(C4CCCC4)s3)nc2c1 [Example 0196, N^2-(5-cyclopentyl-1,3,4-thiadiazol-2-yl)-N^7-methyl-N^7-(1H-pyrazol-4-yl)-1,5-naphthyridine-2,7-diamine]	1000 to 10000	< 1000	–	–
Cn1cc(-c2cnc3ccc(Nc4ccccn4)nc3c2)cn1 [Example 0036, 7-(1-methyl-1H-pyrazol-4-yl)-N-(pyridin-2-yl)-1,5-naphthyridine-2-amine]	1000 to 10000	1000 to 10000	–	–
COCCCNc1cnc2ccc(Nc3nnc(C4CCCC4)s3)nc2c1 [Example 0307]	–	–	< 1000	< 1000
c1nnc(Nc2ccc3ncc(-c4cnn(CCCN5CCNCC5)c4)cc3n2)s1 [Example 0305, N-(7-(1-(3-(piperazin-1-yl)propyl)-1H-pyrazol-4-yl)-1,5-naphthyridin-2-yl)-1,3,4-thiadiazole-2-amine hydrochloride]	–	–	< 1000	< 1000
CCC(C)c1nnc(Nc2ccc3ncc(-c4cnn(CCCN5CCCC5)c4)cc3n2)s1 (stereo not shown) [Example 0263]	–	–	< 1000	< 1000
c1ncc(OCCN2CCCC2)cc1Nc1cnc2ccc(Nc3nnc(C4CCCC4)s3)nc2c1 [Example 0083]	< 1000	< 1000	–	–
CC(C)c1cnnc(Nc2ccc3ncc(-c4cnn(Cc5ccccn5)c4)cc3n2)c1 [Example 0375, N-(5-isopropylpyridazin-3-yl)-7-(1-(pyridin-2-ylmethyl)-1H-pyrazol-4-yl)-1,5-naphthyridine-2-amine]	–	–	< 1000	< 1000
Cc1cc(-c2cnc3ccc(Nc4cc(C(C)C)cnn4)nc3c2)ccn1 [Example 0229]	–	–	< 1000	< 1000
CC(C)c1cnnc(Nc2ccc3ncc(-c4cn[nH]c4)cc3n2)c1 [Example 0153]	1000 to 10000	< 1000	–	–
Cc1cnccc1-c1cnc2ccc(Nc3cc(C(C)C)cnn3)nc2c1 [Example 0361]	–	–	1000 to 10000	< 1000
CN(C)Cc1nnc(Nc2ccc3ncc(-c4cnn(C)c4)cc3n2)s1 [Example 0166, 5-((Dimethylamino)methyl)-N-(7-(1-methyl-1H-pyrazol-4-yl)-1,5-naphthyridin-2-yl)-1,3,4-thiadiazole-2-amine]	1000 to 10000	< 1000	–	–
COc1cc(-c2cnc3ccc(Nc4nnc(C5CCCC5)s4)nc3c2)ccc1O [Example 0202]	–	–	10000 to 50000	< 1000
CS(=O)(=O)N1CCN(c2cnc3ccc(Nc4nnc(C5CCCC5)s4)nc3c2)CC1 [Example 0053, 5-cyclopentyl-N-(7-(4-(methylsulfonyl)piperazin-1-yl)-1,5-naphthyridin-2-yl)-1,3,4-thiadiazole-2-amine hydrochloride]	1000 to 10000	< 1000	–	–
CNc1nnc(Nc2ccc3ncc(-c4cnn(CCN5CCOCC5)c4)cc3n2)s1 [Example 0249, N^2-methyl-N^5-(7-(1-(2-morpholinoethyl)-1H-pyrazol-4-yl)-1,5-naphthyridin-2-yl)-1,3,4-thiadiazole-2,5-diamine]	–	–	< 1000	< 1000
c1ccc2c(Nc3cnc4ccc(Nc5nnc(C6CCCC6)s5)nc4c3)cncc2c1 [Example 0075]	< 1000	1000 to 10000	–	–
CC(C)c1cnnc(Nc2ccc3ncc(-c4cnn(-c5ccncc5)c4)cc3n2)c1 [Example 0399, N-(5-isopropylpyridazin-3-yl)-7-(1-(pyridin-4-yl)-1H-pyrazol-4-yl)-1,5-naphthyridine-2-amine]	–	–	1000 to 10000	< 1000
CN1CCN(c2cnc3ccc(Nc4nnc(C5CCCC5)s4)nc3c2)CC1=O [Example 0054]	< 1000	< 1000	–	–
